In data set [1] the test system is prostate. Briefly: Prostate weight in mice after four weeks of treatment. It counts as in vivo. As to conditions: male mice, 5 times per week for four weeks; BiC 100 mg/kg PO, PP 1 mg/kg IP, or the combination. As to the method: Animals were treated 5 times per week for four weeks. At the end of the study period, animals were sacrificed and prostate tissue weighed. After weighing, the tissue was divided in half for pathological and genetic studies. […] (FIG. 7).

Data set [2] has as its target T1, human androgen receptor (Homo sapiens, UniProt P10275).
T1 construct: expressed in transfected cells; host or cells: HEK293 and LAPC4 stably expressing C-AR-Y; HEK293 transiently transfected with native AR
T1 sequence (P10275 1-920): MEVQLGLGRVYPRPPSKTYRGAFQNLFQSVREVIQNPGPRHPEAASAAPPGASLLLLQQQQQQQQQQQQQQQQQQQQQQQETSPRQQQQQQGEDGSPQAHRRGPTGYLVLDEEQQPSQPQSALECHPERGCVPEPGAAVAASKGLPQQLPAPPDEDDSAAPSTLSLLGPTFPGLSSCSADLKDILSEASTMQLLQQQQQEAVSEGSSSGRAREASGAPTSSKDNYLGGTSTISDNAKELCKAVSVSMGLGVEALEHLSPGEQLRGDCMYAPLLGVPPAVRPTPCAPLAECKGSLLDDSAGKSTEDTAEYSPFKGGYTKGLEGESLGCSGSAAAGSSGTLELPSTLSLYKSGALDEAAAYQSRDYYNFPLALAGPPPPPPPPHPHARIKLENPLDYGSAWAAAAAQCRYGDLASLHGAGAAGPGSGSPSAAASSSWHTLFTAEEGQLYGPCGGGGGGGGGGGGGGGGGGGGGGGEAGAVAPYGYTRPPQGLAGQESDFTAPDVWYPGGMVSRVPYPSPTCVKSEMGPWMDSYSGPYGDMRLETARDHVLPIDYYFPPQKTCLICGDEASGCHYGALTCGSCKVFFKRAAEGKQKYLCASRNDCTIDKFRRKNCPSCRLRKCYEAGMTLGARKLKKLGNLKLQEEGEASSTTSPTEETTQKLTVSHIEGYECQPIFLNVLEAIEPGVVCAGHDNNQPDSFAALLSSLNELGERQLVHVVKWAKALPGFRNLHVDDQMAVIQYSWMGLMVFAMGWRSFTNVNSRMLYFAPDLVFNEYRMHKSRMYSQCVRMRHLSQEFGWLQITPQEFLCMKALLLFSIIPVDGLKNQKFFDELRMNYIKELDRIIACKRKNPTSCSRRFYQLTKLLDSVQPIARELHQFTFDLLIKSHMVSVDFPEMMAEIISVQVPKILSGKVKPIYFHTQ
Briefly: Screen of 1040 FDA-approved drugs and natural products for AR antagonists (MMTV-luciferase transcription assay and C-AR-Y FRET conformation assays). It counts as cell-based. As to conditions: test compounds at 10 μM, 10 nM DHT, 24 hours; validated by dose-response. As to the method: A library assembled by the NINDS was screened. The library consisted of 1040 FDA-approved drugs and natural products. A basic strategy to select and compare compounds from each of the primary screens was established (FIG. 1).
The transcription assay was conducted by transfecting 10 cm plates of HEK293 cells with plasmids encoding MMTV-luciferase, SV40-renilla luciferase, and native AR. […] FRET is fluorescence resonance energy transfer between cyan and yellow fluorescent protein derivatives (CFP, YFP) that are fused to the amino and carboxyl termini of the human androgen receptor. When ligand activates the receptor, a conformational change takes place that brings the CFP and YFP into close proximity, thereby allowing FRET to occur. This spectroscopic change is detected using a fluorescence plate reader.
For the transcription assay, transfected cells were pooled before being plated into 96-well dishes with the test compounds at 10 μM. […] Cell and compound transfers were accomplished with a liquid handling robot. Cells were cultured for 24 hours in the presence of 10 nM DHT and the test compounds. After 24 hours, cells were either lysed by freeze-thaw (transcription assay), or fixed in 4% paraformaldehyde for reading on the FPR (FRET assays). Each compound was tested in duplicate in the initial screen.
The compounds were sorted on the basis of anti-androgen effects. […] This eliminated situations in which one test gave a strong response, and the replicate had none. […] For the FRET assays, toxic compounds were easily detected because of their effect on raw CFP and YFP signal, and compounds that reduced this signal below two standard deviations were eliminated.
The top 50 compounds identified in each primary assay were then tested in the other two assays.

Data set [3] has as its target T2, AR (Homo sapiens, UniProt P10275, T878A).
T2 construct: that each express endogenous AR; endogenous in cells; host or cells: LNCaP
Put plainly: DHT titration against inhibitor, PSA-luciferase reporter in LNCaP cells (competitive vs non-competitive). It counts as cell-based. As to conditions: moderate dose of inhibitor, DHT titrated.

Data set [4] concerns HEK293 cells. Put plainly: Cell proliferation (DNA content, DAPI) in control HEK293 cells. It counts as cell-based. As to conditions: PP 100 nM, HH 100 nM, BiC 1 μM. From the text: LN-AR cells were created by retroviral infection of a high-expressing AR vector into LNCaP cells, and proliferate independent of androgen in cell culture, unlike their parental line (Chen, C. D., et al., Molecular determinants of resistance to antiandrogen therapy. Nat Med, 2004. 10(1): p. 33-9). HEK293 cells were used as a control. Cells were transferred to charcoal-stripped media two days before they were split and plated in quadruplicate at a density of approximately 20,000 cells/well in 48-well plates. […] Media were changed every day, using a single preparation to ensure consistent compound concentrations. Proliferation was determined by measuring the DNA content of the cells in each well. Each day, the cells in four wells were fixed in 100% cold methanol, followed by staining for 5 min at RT with 0.2 ng/mL 4′,6-diamidino-2-phenylindole (DAPI) in PBS. The cells were washed once in PBS, then read on a fluorescence plate reader using 365/439 excitation/emission wavelengths. LAPC4 and LNCaP cells proliferated to a much greater degree in the presence of DHT, while LN-AR cells proliferated in the presence and absence of DHT.

In data set [5] the test system is dorsal prostate. Put plainly: Histology of mouse dorsal prostate after 5 weeks of treatment. It counts as in vivo. As to conditions: FVB male mice, THP or BiC alone, or combination.
In data set [6] the test system is androgen-regulated genes in the prostate. Briefly: Quantitative PCR of androgen-regulated genes in mouse prostate, normalized to RPL19. The settings on record: mice. It counts as in vivo. On the procedure:
A cohort of mice were castrated as a positive control.
For quantitative PCR, RNA was isolated from mouse prostates and reverse-transcribed. The expression of several androgen-regulated genes, of which a subset is shown (FIG. 13), was determined by using QPCR and normalizing to the expression of the housekeeping gene RPL19.

For data set [7], the target named is T3, native androgen receptor (Homo sapiens, UniProt P10275).
T3 construct: that each express endogenous AR; endogenous in cells; host or cells: LAPC4
T3 sequence (P10275 1-920): T1 sequence (P10275 1-920)
Briefly: PSA-luciferase reporter with CMV-renilla control in LAPC4 cells (THP). The settings on record: LAPC4, DHT and increasing amounts of compound. Type of data set: cell-based. An excerpt: LAPC4 cells, a prostate cancer cell line that expresses native androgen receptor, were transfected with a PSA-luciferase reporter, and a CMV-renilla luciferase control.

Data set [8] relates to prostate. Briefly: Prostate wet weight in FVB male mice after 5 weeks of treatment. It counts as in vivo.
In data set [9] the target is T4, AR with a mutation (T877A) (Homo sapiens, UniProt P10275, T878A).
T4 construct: that each express endogenous AR; endogenous in cells; host or cells: LNCaP
T4 sequence (P10275 1-920 T878A): T1 sequence (P10275 1-920) with T878A
Put plainly: PSA-luciferase reporter transcription assay in LNCaP cells. It counts as cell-based. As to conditions: 3 nM DHT. As to the method:
Cells were transfected with two reporter plasmids, a PSA-luciferase construct (androgen responsive), and an SV40-renilla luciferase construct as an internal control. The following day, the cells were split and drugs added in the presence of 3 nM DHT. Luciferase production was measured the following day (Dual luciferase assay kit, Promega).
Synergism can be defined as a combination index of less than one, using the non-exclusive assumption described by Chou et al. (Chou, T. C. and P. Talalay, Quantitative analysis of dose-effect relationships: the combined effects of multiple drugs or enzyme inhibitors. Adv Enzyme Regul, 1984. 22: p. 27-55).

Residue numbers refer to the chain shown, from its start. Entries after “also recorded” stand apart in the source; their conditions may differ. Structures can show the parent of a compound that is named as a salt.

T2 sequence (P10275 whole entry T878A): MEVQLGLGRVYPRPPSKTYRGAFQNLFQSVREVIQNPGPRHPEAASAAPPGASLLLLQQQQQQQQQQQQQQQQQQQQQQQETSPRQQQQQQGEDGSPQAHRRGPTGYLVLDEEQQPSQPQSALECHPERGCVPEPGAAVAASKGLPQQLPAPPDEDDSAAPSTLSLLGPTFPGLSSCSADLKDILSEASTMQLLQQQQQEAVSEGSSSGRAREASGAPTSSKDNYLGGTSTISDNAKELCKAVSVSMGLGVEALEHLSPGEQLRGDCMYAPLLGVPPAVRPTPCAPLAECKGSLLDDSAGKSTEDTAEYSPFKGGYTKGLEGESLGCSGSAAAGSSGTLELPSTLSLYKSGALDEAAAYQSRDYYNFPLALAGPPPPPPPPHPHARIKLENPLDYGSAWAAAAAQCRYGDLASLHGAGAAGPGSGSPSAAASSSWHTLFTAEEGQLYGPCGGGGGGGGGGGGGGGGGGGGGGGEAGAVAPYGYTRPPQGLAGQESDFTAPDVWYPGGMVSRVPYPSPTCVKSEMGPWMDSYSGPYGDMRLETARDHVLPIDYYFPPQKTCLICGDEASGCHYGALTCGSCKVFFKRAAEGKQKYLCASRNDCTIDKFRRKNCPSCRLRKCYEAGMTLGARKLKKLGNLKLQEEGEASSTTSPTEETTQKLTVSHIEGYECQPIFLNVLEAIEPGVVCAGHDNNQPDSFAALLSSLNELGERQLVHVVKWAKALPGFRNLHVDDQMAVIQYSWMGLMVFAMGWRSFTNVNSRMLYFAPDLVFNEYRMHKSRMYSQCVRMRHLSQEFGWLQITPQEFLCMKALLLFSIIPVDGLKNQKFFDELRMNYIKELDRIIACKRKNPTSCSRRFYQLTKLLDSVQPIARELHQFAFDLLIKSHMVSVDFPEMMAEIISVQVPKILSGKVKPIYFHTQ

As to `CC(O)(CS(=O)(=O)c1ccc(F)cc1)C(=O)Nc1ccc(C#N)c(C(F)(F)F)c1` (stereo not shown) [BiC, bicalutamide], the “Reduction of prostate weight” value in data set [1] came out at 35%.

On to `O=c1ccc2cc(O[C@@H]3O[C@H](CO)[C@@H](O)[C@H](O)[C@H]3O)c(O)cc2o1` [Esculin], for which, in data set [2], the “Anti-androgen activity in screen” value is “previously unrecognized anti-androgen activity”.

Consider `CC(C)(O)C(=O)Nc1ccc([N+](=O)[O-])c(C(F)(F)F)c1` [OH—F, hydroxy-flutamide, reference compound], for which the “Anti-androgen activity in screen” value in [2] is “top hits”. The “Mode of antagonism on DHT titration” value in data set [3] is “DHT overcame the inhibitory effect; also recorded: consistent with a competitive antagonist”.

In the case of `Cc1cc(/C=C/c2ccc3cc(N(C)C)ccc3[n+]2C)c(C)n1-c1ccccc1` [PP, 6-Dimethylamino-2-[2-(2,5-dimethyl-1-phenyl-1H-pyrrol-3-yl)-vinyl]-1-methyl-quinolinium, pamoate salt, reference compound], the Non-specific growth inhibition result in [4] is recorded as “Neither compound exhibited non-specific growth inhibition”.

With `COc1cc2ccc(=O)oc2cc1O` [Scopoletin], in [2], the “Anti-androgen activity in screen” value is reported as “previously unrecognized anti-androgen activity”.

With `Cc1cc(/C=C/C2CCc3cc(N(C)C)ccc3N2C)c(C)n1-c1ccccc1` (stereo not shown) [THP, {2-[2-(2,5-Dimethyl-1-phenyl-1H-pyrrol-3-yl)-vinyl]-1-methyl-1,2,3,4-tetrahydro-quinolin-6-yl}-dimethyl-amine], the “Atrophy of the dorsal prostate by histological examination” value in data set [5] was “modest atrophy”. In addition, the “Expression of androgen-regulated genes in the prostate (QPCR)” value in data set [6] (2 mg/kg THP) is “modest effects”; in [6] (20 mg/kg THP), “significantly decreased the transcription of many androgen regulated genes”. The “Inhibition of androgen receptor-mediated transcription (normalized luciferase activity)” value in data set [7] was “strong inhibition of androgen receptor-mediated transcription”. For the same molecule, the “Appearance of the prostate” value in [8] (20 mg/kg THP, 5 weeks) was “abnormal milky appearance of the prostate”. Also, the “Change in prostate wet weight” value in data set [8] (5 weeks daily M-F, 1 mg/kg PP, 100 mg/kg BiC, 20 mg/kg THP, or 2 mg/kg THP + 100 mg/kg BiC) is “did not reduce overall wet weight”.

As for Harman, the IC50 in data set [9] worked out at 380 nM.

The values are drawn from patent US8580773B2, “Small-molecule inhibitors of the androgen receptor” (The Regents of the University of California, priority 2008, dated 2013).
